Laboratory results taken from ChEMBL document CHEMBL1201862, “PubChem BioAssay data set” (2004).
Where “and” joins values, the source holds several entries; their conditions need not be identical. Equal entries are not always repeated.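 Method: 48-hour compound exposure of cells in 96-well plates, five concentrations, linear interpolation of endpoints. Here, GI50 denotes the concentration required for 50% inhibition of growth.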 Calls of active or inactive are those of the source. No stated cut-off is given here; in the data, active = GI50 up to about 1.1 µM and inactive = higher.

Experiments:
Experiment in all cases: inhibition of tumour cell growth, NCI panel, 48 h
[1] = tested on: UO-31
[2] = tested on: Hs-578T
[3] = tested on: SN12C
[4] = tested on: SK-MEL-5
[5] = tested on: MOLT-4
[6] = tested on: SW-620
[7] = tested on: PC-3
[8] = tested on: HCC 2998
[9] = tested on: UACC-257
[10] = tested on: BT-549
[11] = tested on: IGROV-1
[12] = tested on: HT-29
[13] = tested on: TK-10
[14] = tested on: SK-OV-3
[15] = tested on: EKVX
[16] = tested on: CCRF-CEM
[17] = tested on: NCI-H226
[18] = tested on: A549
[19] = tested on: RPMI-8226
[20] = tested on: OVCAR-3

Measured: GI50

COc1ccc(OC)c(C(=O)c2cccc(C(=O)c3cc(OC)ccc3OC)n2)c1
inactive: [1] 17.9 µM | [2] 27 µM | [3] 57.1 µM | [4] 15 µM | [5] 30.8 µM | [6] 39.6 µM | [7] 33.6 µM | [8] 46.9 µM | [9] 53.2 µM | [10] 22.9 µM | [11] 38.8 µM | [12] 35.7 µM | [13] 35.5 µM | [14] 46.1 µM | [15] 41.1 µM | [16] 46.8 µM | [17] 27.3 µM | [18] 42.9 µM

CCOC(=O)C(=[N+]=[N-])C(=O)CN1C(=O)C2CC(C)=C(C)CC2C1O (stereo not drawn)
inactive: [1] > 100 µM | [2] > 100 µM | [4] > 100 µM | [19] > 100 µM | [5] > 100 µM | [6] > 100 µM | [7] > 100 µM | [8] > 100 µM | [9] > 100 µM | [10] > 100 µM | [20] > 100 µM | [11] > 100 µM | [12] > 100 µM | [13] > 100 µM | [15] > 100 µM | [16] > 100 µM | [17] 68.2 µM | [18] > 100 µM

CCOC(=O)C1=CNC(C(=O)OCC)C1c1cccn1-c1ccccc1 (stereo not drawn)
inactive: [1] 20.7 µM | [2] 38.6 µM | [3] 29.4 µM | [4] 17.5 µM | [5] 19.8 µM | [6] 27.1 µM | [7] 18.8 µM | [8] 28.7 µM | [9] 35.7 µM | [10] 36.7 µM | [20] 26.1 µM | [11] 33 µM | [12] 23 µM | [13] 41.8 µM | [15] 35.8 µM | [16] 29.3 µM | [17] 23.3 µM | [18] 33.9 µM

CCOP(=O)(OCC)C(Cc1ccc(Cl)cc1)NS(=O)(=O)c1ccc(C)cc1 (stereo not drawn)
inactive: [2] > 100 µM | [3] 67.6 µM | [4] > 100 µM | [19] 98.9 µM | [5] > 100 µM | [6] > 100 µM | [7] > 100 µM | [8] > 100 µM | [9] 35.5 µM | [10] > 100 µM | [20] > 100 µM | [11] > 100 µM | [12] > 100 µM | [13] > 100 µM | [14] > 100 µM | [15] > 100 µM | [16] > 100 µM | [18] > 100 µM

CSc1ccc(/C=C2\N=C(c3ccccc3)N(/N=C3\C(=O)Nc4ccccc43)C2=O)cc1
inactive: [1] > 100 µM | [2] > 100 µM | [3] > 100 µM | [4] > 100 µM | [5] 29.7 µM | [6] > 100 µM | [7] > 100 µM | [8] > 100 µM | [9] > 100 µM | [10] > 100 µM | [20] 83.6 µM | [11] > 100 µM | [12] > 100 µM | [13] > 100 µM | [14] > 100 µM | [15] 38.7 µM | [16] 92.5 µM | [18] > 100 µM

c1ccc(C(NC2CCCCC2NCCNC2CCCCC2NC(c2ccccc2)(c2ccccc2)c2ccccc2)(c2ccccc2)c2ccccc2)cc1 (stereo not drawn)
inactive: [1] 20.4 µM | [2] 11.7 µM | [3] > 100 µM | [4] 39.5 µM | [19] 7.8 µM | [5] 47.8 µM | [6] 22.6 µM | [7] 64 µM | [8] > 10 µM | [9] > 100 µM | [10] 17.5 µM | [20] 39.5 µM | [11] 26.8 µM | [12] > 100 µM | [13] 90.4 µM | [14] 17.8 µM | [15] 87.9 µM | [16] 42.4 µM | [18] 64.1 µM

Nc1nc(Cl)c(/C=N\O)c(NCC2(CO)CCC2)n1
inactive: [1] 19.9 µM | [2] 28.2 µM | [3] 68.4 µM | [4] 28.8 µM | [19] 8.11 µM | [5] 13.5 µM | [6] > 100 µM | [7] 43 µM | [8] 68.7 µM | [9] 29.3 µM | [10] 32.6 µM | [20] 24.2 µM | [11] > 10 µM | [12] 59.3 µM | [13] 21.8 µM | [15] 17.3 µM | [16] 28.5 µM | [17] 23.2 µM | [18] 28.4 µM

COc1ccc(-c2cc(-c3ccc(Nc4ccnc5cc(Cl)ccc45)cc3)[nH]c(=O)c2C#N)cc1
inactive: [1] > 100 µM | [2] > 100 µM | [19] > 100 µM | [5] > 100 µM | [6] > 100 µM | [7] > 100 µM | [8] > 100 µM | [10] > 100 µM | [20] > 100 µM | [11] > 100 µM | [13] 72.4 µM | [14] > 100 µM | [15] > 100 µM | [17] > 100 µM | [18] > 100 µM

COc1ccc(-c2nc(SC)n(C3OC(COC(C)=O)C(OC(C)=O)C(OC(C)=O)C3OC(C)=O)c(=O)c2C#N)cc1 (stereo not drawn)
inactive: [1] 27 µM and 25.6 µM | [2] 34.9 µM | [3] 39.7 µM | [4] > 100 µM | [5] 68.4 µM | [6] > 100 µM | [7] > 100 µM | [8] > 100 µM | [9] > 100 µM | [10] > 100 µM | [11] > 100 µM | [12] > 100 µM | [13] > 100 µM | [15] > 100 µM | [16] > 100 µM | [17] > 100 µM | [18] 59 µM

N#C/C(=C\c1ccc(F)cc1)c1nc(-c2cc3ccccc3oc2=O)cs1
inactive: [1] 26.9 µM | [2] 15.1 µM | [3] 74 µM | [4] 15.3 µM | [19] 87.9 µM | [5] > 100 µM | [6] 40.4 µM | [7] 31.7 µM | [8] 37.7 µM | [9] 20.7 µM | [10] 12.3 µM | [11] 22.6 µM | [12] 40.1 µM | [13] 16.4 µM | [14] 20.4 µM | [15] 30.8 µM | [16] > 100 µM | [17] 28.7 µM | [18] 55.5 µM

O=C1/C(=C/c2ccccc2S)N=C(c2ccccc2)N1c1nc2c(Cl)cc(Cl)cc2s1
inactive: [1] 21 µM | [2] 23.7 µM | [3] 22.3 µM | [4] 17.7 µM | [19] 21.8 µM | [5] 12.6 µM | [6] 27.7 µM | [7] 23.9 µM | [8] 26.4 µM | [9] 28.9 µM | [10] 26.7 µM | [20] 17.3 µM | [11] 20.9 µM | [12] 18.4 µM | [13] 37.1 µM | [14] 20.9 µM | [15] 11.6 µM | [16] 2.27 µM | [18] 21.9 µM

CCC(=O)NC(Nc1ccccc1F)(C(F)(F)F)C(F)(F)F
inactive: [1] > 100 µM | [2] > 100 µM | [3] > 100 µM | [4] > 100 µM | [19] > 100 µM | [5] > 100 µM | [6] > 100 µM | [7] > 100 µM | [8] > 100 µM | [9] > 100 µM | [10] > 100 µM | [20] > 100 µM | [11] > 100 µM | [12] > 100 µM | [13] > 100 µM | [14] > 100 µM | [15] > 100 µM | [16] > 100 µM | [18] > 100 µM

Nc1ccc(Nc2cc(=O)[nH]c(=O)[nH]2)cc1Cl
inactive: [1] > 100 µM | [2] > 100 µM | [3] > 100 µM | [4] > 100 µM | [19] > 100 µM | [5] > 100 µM | [6] > 100 µM | [7] > 100 µM | [8] > 100 µM | [9] > 100 µM | [10] > 100 µM | [20] > 100 µM | [12] > 100 µM | [13] > 100 µM | [14] > 100 µM | [16] > 100 µM | [17] > 100 µM | [18] > 100 µM

Cc1cc(C)c2c(c1)C(=O)C1(C2)Cc2c(ccc(C)c2C)C1=O (stereo not drawn)
inactive: [1] > 100 µM | [2] > 100 µM | [3] > 100 µM | [4] > 100 µM | [19] > 100 µM | [5] > 100 µM | [6] > 100 µM | [7] > 100 µM | [8] > 100 µM | [9] > 100 µM | [10] > 100 µM | [20] 14.3 µM | [11] > 100 µM | [13] > 100 µM | [15] > 100 µM | [16] > 100 µM | [17] > 100 µM | [18] > 100 µM

FC(F)(F)C1(C(F)(F)F)OC(Cl)(Cl)C(Cl)(Cl)O1
inactive: [2] > 10 µM | [4] > 10 µM | [6] > 10 µM | [7] > 10 µM | [8] > 10 µM | [9] > 10 µM | [10] > 10 µM | [20] > 10 µM | [11] > 10 µM | [12] > 10 µM | [13] > 10 µM | [14] > 10 µM | [15] > 10 µM | [17] > 10 µM | [18] > 10 µM
